Legend:
[1] = test system: Yersinia Enterocolitica; test: Growth of inoculated Yersinia Enterocolitica in whole blood under different atmospheres; type: cell-based; conditions: room temperature, about 20 bacteria per ml inoculated, compared with air (FIG. 1)
Experimental: Freshly drawn whole blood was obtained from a human donor under sterile conditions, and stored in gas impermeable bags having a volume of at least 1.5 times that of the blood volume. The gas environment (or atmosphere) in the bag was then replaced by an atmosphere containing sterile CO by applying a low level vacuum with a water pump of 20 mm Hg. CO was immediately flushed through a 0.25 micron sterile filter. The bag was sealed and agitated for 15 minutes to allow equilibration. This procedure was repeated three times thereby exchanging the atmosphere in the bag and blood with CO. Saturation with carbon monoxide can be identified in hemoglobin in samples of the treated blood according to typical changes of the light absorption spectrum of the hemoglobin in the visible region by a shift from 577 nm (typical of oxy-hemoglobin) to 569 nm (typical of carbomonoxy-hemoglobin).
(§1) Control blood samples were packed under air in the same containers without any additional treatment allowing air transfer. In some experiments control of inert gas like nitrogen were used to exchange the air in the same manner as CO.
Whole blood or its factions were inoculated with pathogenic bacteria. Growth of the bacteria at room temperature was followed under different atmospheres (gas environments ). […]

[2] = test system: Bacilus cereus; test: Growth of inoculated Bacilus cereus in platelets stored as PRP; type: cell-based; conditions: 20-24° C., inoculated at 18 CFU/ml, compared with air (FIG. 2)
Experimental: (§2) PC fractions were identically prepared from CO pretreated or untreated blood by consecutive centrifugation in a sterile environment using blood bank conditions. Bicarbonate (4% of PC volume) is than added from a stock solution of 750 mM while agitation to yield a final bicarbonate concentration of 30 mM. […] Alternatively, rather than applying a vacuum, the containers were flushed for 10 min. with sterile CO while agitating the containers, which were then sealed. The containers were allowed to stay at room temperature of 20-24° C.PRP platelets were treated similarly.
(§3) Control blood samples were packed under air in the same containers without any additional treatment allowing air transfer. In some experiments control of inert gas like nitrogen were used to exchange the air in the same manner as CO. […]
(§4) For FIGS. 2-6, platelets were stored as PRP with agitation at room temperature (20-24° C.) in a blood bank rocking plane as for regular blood bank under air with gas exchange option (AIR); or sealed under nitrogen atmosphere (N2) or carbon monoxide atmosphere (CO). […] The amount of inoculated bacteria was adjusted to a range of 10-100 CFU/ml before inoculation, in which the exact final number of bacteria was been measured by plating the stock on suitable agar plates allowing growth and counting (the final initial counts are given in each case).

[3] = test system: E. coli (strain O 157); test: Growth of inoculated E. coli in platelets stored as PRP; type: cell-based; conditions: 20-24° C., inoculated at 25 CFU/ml, compared with air (FIG. 3)
Experimental: as §2, §3, §4

[4] = test system: Pseudomonas aeraginosa; test: Growth of inoculated Pseudomonas aeraginosa in platelets stored as PRP; type: cell-based; conditions: 20-24° C., inoculated at 16 CFU/ml, compared with air (FIG. 4)
Experimental: as §2, §3, §4

[5] = test system: Bulkholderia cepasea; test: Growth of inoculated Bulkholderia cepasea in platelets stored as PRP; type: cell-based; conditions: 20-24° C., inoculated at 12 CFU/ml, compared with air (FIG. 5)
Experimental: as §2, §3, §4

[6] = test system: Staphilococcus aereus; test: Growth of inoculated Staphilococcus aereus in platelets stored as PRP; type: cell-based; conditions: 20-24° C., inoculated at 18 CFU/ml, compared with air (FIG. 6)
Experimental: as §2, §3, §4

[7] = test system: Salmonella thyphimurium; test: Growth of Salmonella thyphimurium in PRP or PC fractions; type: cell-based; conditions: compared with air (FIG. 7)
Experimental: (§5) PC fractions were identically prepared from CO pretreated or untreated blood by consecutive centrifugation in a sterile environment using blood bank conditions. Bicarbonate (4% of PC volume) is than added from a stock solution of 750 mM while agitation to yield a final bicarbonate concentration of 30 mM. Next, the PC is treated with CO in a similar manner to whole blood. Alternatively, rather than applying a vacuum, the containers were flushed for 10 min. with sterile CO while agitating the containers, which were then sealed. The containers were allowed to stay at room temperature of 20-24° C.PRP platelets were treated similarly.
as §1
Whole blood or its factions were inoculated with pathogenic bacteria. Growth of the bacteria at room temperature was followed under different atmospheres (gas environments ). The blood fractions were platelets in plasma (PRP); concentrated platelets (PC) as currently stored in blood banks after removal of about three quarters of the plasma and the cell-free blood plasma. […]

[8] = test system: Salmonella thyphimurium; test: Growth of Salmonella thyphimurium in cells-free plasma; type: cell-based; conditions: plasma alone as source of nutrition (FIG. 8)
Excerpt: Whole blood or its factions were inoculated with pathogenic bacteria. Growth of the bacteria at room temperature was followed under different atmospheres (gas environments ). The blood fractions were platelets in plasma (PRP); concentrated platelets (PC) as currently stored in blood banks after removal of about three quarters of the plasma and the cell-free blood plasma.
FIG. 8 compares the growth of Salmonella thyphimurium in cells-free plasma under AIR, N2 and CO.

[9] = test system: platelets; test: Platelet viability: leakage of LDH from stored platelets; type: cell-based, human
Experimental: as §5
The viability of the platelets under storage was tested in the form of PC because platelets are currently stored in this form, in order to be able to store and use the extra plasma in PRP separately. However, the PC environment lacks both red cells and plasma, such that platelets in this environment are more sensitive than in the PRP form to loss of viability. Without wishing to be limited to a single hypothesis, platelets in the form of PC may experience changes in pH, and therefore may lose the necessary pH neutrality of the environment. The viability of platelets stored as PC was investigated according to two parameters: drop of pH of the environment, and loss of membrane integrity of the cells themselves, leading to leakage of cellular proteins.
With regard to leakage of LDH, cell viability can also be evaluated according to membrane integrity. LDH (lactic dehydrogenase) is a stable enzyme which is normally active inside cells; when these cells have loss of membrane integrity, LDH is leaked outside the cells, such that higher levels of LDH activity are correlated with reduced platelet viability. The presence of LDH activity in platelet-free solution samples was measured in order to assess the viability of the platelet-containing fractions from which the samples were taken. […]

[10] = test system: platelets; test: Ability of stored platelets to aggregate upon activation by collagen (Plateletworks kit); type: cell-based, human
Experimental: An assessment of the potential of platelets to form aggregates upon activation by an agonist, preferably collagen, a typical physiological agonist, was performed, to determine the potential effect of carbon monoxide on this physiological function of platelets. The assay was performed as follows.
Fresh blood bank platelets, prepared as platelet concentrates (PC), were used. Each PC unit was divided. One part was stored without carbon monoxide treatment, which is the current method of preserving PC in blood banks. The other portion was sealed under carbon monoxide as previously described. Samples were preserved under sterile conditions at 20-23° C., while shaking gently. The ability of platelets to aggregate upon activation by collagen as an agonist was tested daily using a kit by Helena Laboratories (USA), called the Plateletworks kit. To allow platelet count and reduce anticoagulant activity, the PC was diluted 1:10 with the physiological buffer PBS pH 7.3. The whole individual platelets present were counted prior and after addition of the agonist, for this example collagen.
Therefore, the stored PC samples (control and stored under carbon monoxide) were tested for their ability to aggregate following two hours shaking under air after being removed from storage.

[11] = test system: human body; conditions: cited from earlier work
[12] = test system: platelets; conditions: via binding to Guanylate Cyclase; Brune and Ullrich 1987; cited from earlier work
[13] = test system: bacteria; conditions: upon photoactivation; Gambro BCT abstracts 2001; cited from earlier work
[14] = test system: platelets; conditions: autologous transfusions performed in primates; cited from earlier work

Structure (SMILES)	growth of inoculated Yersinia Enterocolitica in whole blood [1]	growth of Bacilus cereus in PRP [2]	growth of E. coli (strain O 157) in PRP [3]	growth of Pseudomonas aeraginosa in PRP [4]	growth of Bulkholderia cepasea in PRP [5]	growth of Staphilococcus aereus in PRP [6]	growth of Salmonella thyphimurium in PC ([7]; PC, count at time zero 32 CFU/ml)	growth of Salmonella thyphimurium in PRP ([7]; PRP, count at time zero 16 CFU/ml)	growth of Salmonella thyphimurium in cells-free plasma [8]	LDH activity in the supernatant, a measure of leakage ([9]; PC, air vs CO vs CO with sodium bicarbonate (FIG. 10))	viability of platelets in PC (LDH leakage) ([9]; PC, no additional bicarbonate, compared with air (FIG. 10))	leakage of LDH (LDH activity in supernatant), platelets stored as PRP ([9]; PRP, compared with air, data not shown)	ability to aggregate in response to collagen ([10]; PC stored under carbon monoxide, carbon monoxide replaced by air)	formation of aggregates upon exposure to collagen ([10]; PC stored under carbon monoxide, tested immediately after being exposed to air)	fraction of platelets able to form aggregates ([10]; PC, day 11, two hours shaking under air after storage, compared with same PC unit stored under air (FIGS. 11A-11C))	safety threshold or TLV, equivalent inhalation ([11]; equivalent of 8 hours per day at 20 ppm)	safety threshold or TLV for the human body ([11]; inhalation of 8 hours per day of air containing the gas) [ppm]	aggregation of platelets [12]	effectiveness for bacterial inactivation [13]	platelet survival rates [14]
[C-]#[O+] [carbon monoxide]	completely inhibited	significantly inhibited	significantly inhibited	significantly inhibited	eliminated	significantly inhibited	inhibited	significantly inhibited	inhibition of pathogen growth was maintained	similar, high levels	lost much faster than stored in air	equal or even somewhat lower than under air	regained their ability to aggregate	did not form aggregates	larger fraction	10^4 ppm/minute	20	can inhibit aggregation	–	–
N#N [nitrogen, reference compound]	completely inhibited	little or no effect	little or no effect	little or no effect	little or no effect	little or no effect	–	–	–	–	–	–	–	–	–	–	–	–	–	–
Cc1cc2nc3c(=O)[nH]c(=O)nc-3n(C[C@H](O)[C@H](O)[C@H](O)CO)c2cc1C [riboflavin]	–	–	–	–	–	–	–	–	–	–	–	–	–	–	–	–	–	–	variable effectiveness	may even decrease platelet survival rates

Reference: patent US20040109903A1, “Method for extended storage of viable and pathogen-safe blood and blood components using carbon monoxide” (priority 2002, published 2004)
